Results taken from patent US20230099803A1, “OXAZOLIDINONE FOR TREATMENT OF INFECTIONS WITH MYCOBACTERIUM TUBERCULOSIS” (priority 2017, published 2023).
≈ marks a conversion by molar mass, not a printed value. Read-outs that look alike come from different tables or passages of the source.

Legend:
Enterobacter cloacae = assay: MIC90 broth microdilution; type: cell-based; settings: for MIC90: Enterobacter cloacae, ATCC13047, ATCC 13047, 35° C., 18 hours
[1] = test system: Acinetobacter baumannii ACBA; assay: MIC90 broth microdilution; type: cell-based; settings: patient isolate ACBA, 35° C., 18 hours
[2] = test system: Mycobacterium tuberculosis; assay: MIC90 broth macrodilution; settings: H37Rv; 7H9 broth, fourteen days at 37° C.
[3] = test system: Mycobacterium tuberculosis; assay: Minimum bactericidal concentration (MBC99.9); type: cell-based
[4] = test system: Acinetobacter baumannii ATCC 19606; assay: MIC90 broth microdilution; type: cell-based; settings: ATCC19606, strain ATCC 19606, 35° C., 18 hours
[5] = test system: methicillin-resistant Staphylococcus aureus; assay: Checkerboard titration assay; type: cell-based; settings: T145 combined with doripenem, biapenem, faropenem and tebipenem; 1x to 1/16x MIC90
[6] = test system: Mycobacterium tuberculosis; assay: Checkerboard titration assay; type: cell-based; settings: T145 combined with isoniazid or rifampicin
Text: The inventors also evaluated if any drug-drug interaction existed between T145 and isoniazid or rifampicin, two drugs that comprise the backbone of tuberculosis treatment today, against Mycobacterium tuberculosis using the checkerboard assay as described above. Any antagonism or synergy between T145 and isoniazid or rifampicin is not observed, and therefore that activity of T145 against Mycobacterium tuberculosis is indifferent to that of isoniazid or rifampicin.
This assay is a modification of the broth dilution assay and was carried out as described. In summary, each well containing 10^5 CFU received two drugs each in two fold dilutions below their respective MIC90. The suspensions are incubated at 37° C. and growth was evaluated as described above. Fractional Inhibitory Concentration (FIC) of a drug in a combination that inhibits bacterial growth is the concentration of the drug in the well divided by MIC90 of the drug if used alone. The sum of FIC of each drug in the combination is the FIC index. In each well where bacterial growth was absent, FIC index was calculated and an average FIC index was determined. Drug-drug antagonism was inferred if average FIC index is >2, indifference if 0.5-2.0 and synergy if ≤ 0.5.

Pseudomonas aeruginosa = assay: MIC90 broth microdilution; type: cell-based; settings: for MIC90: Pseudomonas aeruginosa, PA14, 35° C., 18 hours
Staphylococcus aureus [7] = assay: Minimum bactericidal concentration (MBC99.9); type: cell-based; settings: up to 8 times MIC90
Enterococcus faecalis [8] = test system: Enterococcus faecalis
Enterococcus faecalis [9] = assay: MIC90 broth microdilution; type: cell-based; settings: ATCC19433, ATCC 19433, 35° C., 18 hours
[10] = test system: Acinetobacter baumannii 6M-1b; assay: MIC90 broth microdilution; type: cell-based; settings: 6M1B, environmental strain 6M-1b, 35° C., 18 hours
[11] = test system: methicillin-resistant Staphylococcus aureus ATCC 43300; assay: MIC90 determination; type: cell-based; settings: ATCC43300, methicillin-resistant strain ATCC 43300
Staphylococcus aureus [12] = test system: Staphylococcus aureus
[13] = test system: methicillin-sensitive Staphylococcus aureus; assay: Checkerboard titration assay; type: cell-based; settings: T145 combined with doripenem, biapenem, faropenem and tebipenem; 1x to 1/16x MIC90
Enterococcus faecalis [14] = assay: Checkerboard titration assay; type: cell-based; settings: T145 combined with doripenem, biapenem, faropenem and tebipenem; 1x to 1/16x MIC90
Klebsiella pneumoniae = assay: MIC90 broth microdilution; type: cell-based; settings: for MIC90: Klebsiella pneumoniae, ATCC35657, ATCC 35657, 35° C., 18 hours
Mycobacterium abscessus = assay: MIC90 broth microdilution; type: cell-based; settings: for MIC90: Mycobacteroides abscessus, ATCC19977, 72 h, ATCC 19977, 30° C., 3 days
[15] = test system: Staphylococcus aureus methicillin-sensitive; assay: MIC90 broth microdilution; type: cell-based; settings: ATCC29213, ATCC 29213, 35° C., 18 hours
Mycobacterium avium = assay: MIC90 broth microdilution; type: cell-based; settings: for MIC90: Mycobacterium avium, 168 h, strain 104, seven days at 37° C.
Enterococcus faecalis [16] = assay: Minimum bactericidal concentration (MBC99.9); type: cell-based; settings: up to 8 times MIC90
[17] = test system: Mycobacterium tuberculosis; settings: values marked with literature reference (^4,11 or ^15), cited from earlier work
Staphylococcus aureus [18] = settings: general statement on linezolid; cited from earlier work
[19] = Acinetobacter baumannii, read-out: MIC90

| SMILES | MIC90 (Enterobacter cloacae) | MIC90 [1, 19] | MIC90 [1] | MIC90 [4] | MIC90 (Pseudomonas aeruginosa) | MIC90 (Enterococcus faecalis [9]) | MIC90 [10] | MIC90 (Klebsiella pneumoniae) | MIC90 [15] | MIC90 [17] | further results |
| --- | --- | --- | --- | --- | --- | --- | --- | --- | --- | --- | --- |
| CC(=O)NC[C@H]1CN(c2ccc3c(c2)Oc2ccccc2O3)C(=O)O1 [T145, N-(((S)-3-(dibenzo[b,e][1,4]dioxin-7-yl)-2-oxooxazolidin-5-yl)methyl)acetamide] | > 64 µg/mL | > 64 µg/mL | >64 µg/mL | 32 to 64 µg/mL (≈ 94 to 188 µM) | > 64 µg/mL | 0.25 to 0.5 µg/mL (≈ 0.735 to 1.47 µM) | 0.25 to 0.5 µg/mL (≈ 0.735 to 1.47 µM) | > 64 µg/mL | 0.5 to 1 µg/mL (≈ 1.47 to 2.94 µM) | – | antimicrobial activity (in words) (Enterobacter cloacae): no activity; MIC90 [2]: 0.5 to 1.0 µg/mL; bactericidal or bacteriostatic activity ([3]; 1, 2, 4 and 8 times MIC90): bactericidal; MBC ([3]; Mycobacterium tuberculosis, concentration at which 99.9% of bacilli are killed): 2 µg/mL (≈ 5.88 µM); drug-drug interaction (synergy, indifference or antagonism) [5]: indifferent; drug-drug interaction (synergy, indifference or antagonism) [6]: indifferent; antimicrobial activity (in words) (Pseudomonas aeruginosa): no activity; bactericidal or bacteriostatic activity (Staphylococcus aureus [7]): bacteriostatic; selection of spontaneous resistant mutants (Enterococcus faecalis [8]): did not form classical distinct single colonies; MIC90 [11]: 0.5 to 1 µg/mL (≈ 1.47 to 2.94 µM); selection of spontaneous resistant mutants (Staphylococcus aureus [12]): did not form classical distinct single colonies; drug-drug interaction (synergy, indifference or antagonism) [13]: indifferent; drug-drug interaction (synergy, indifference or antagonism) (Enterococcus faecalis [14]): indifferent; antimicrobial activity (in words) (Klebsiella pneumoniae): no activity; antimicrobial activity (in words) (Mycobacterium abscessus): no activity; MIC90 (Mycobacterium abscessus): > 64 µg/mL; antimicrobial activity (in words) (Mycobacterium avium): no activity; MIC90 (Mycobacterium avium): > 64 µg/mL; bactericidal or bacteriostatic activity (Enterococcus faecalis [16]): bacteriostatic |
| C[C@@H](O)[C@H]1C(=O)N2C(C(=O)O)=C(S[C@@H]3CN[C@H](CNS(N)(=O)=O)C3)[C@H](C)[C@H]12 [Doripenem] | – | – | – | – | – | 0.25 to 0.5 µg/mL (≈ 0.595 to 1.19 µM) | – | – | 0.003 to 0.007 µg/mL (≈ 0.00713 to 0.0166 µM) | 2.5-5.0 ^15 µg/ml | – |
| C[C@@H](O)[C@H]1C(=O)N2C(C(=O)O)=C(SC3CN(C4=NCCS4)C3)[C@H](C)[C@H]12 [Tebipenem] | – | – | – | – | – | 0.25 to 0.5 µg/mL (≈ 0.652 to 1.3 µM) | – | – | 0.03 to 0.06 µg/mL (≈ 0.0782 to 0.156 µM) | 1.25-2.5 ^15 µg/ml | – |
| C[C@@H](O)[C@H]1C(=O)N2C(C(=O)O)=C([C@H]3CCCO3)S[C@H]12 [Faropenem] | – | – | – | – | – | 0.25 to 0.5 µg/mL (≈ 0.876 to 1.75 µM) | – | – | 0.015 to 0.03 µg/mL (≈ 0.0526 to 0.105 µM) | 2.5-5.0 ^15 µg/ml | – |
| C[C@@H](O)[C@H]1C(=O)N2C(C(=O)O)=C(S[C@@H]3CN[C@H](C(=O)N(C)C)C3)[C@H](C)[C@H]12 [Meropenem] | 0.13 to 0.25 µg/mL (≈ 0.339 to 0.652 µM) | > 64 µg/mL | >64 µg/mL | > 64 µg/mL | 0.25 to 0.5 µg/mL (≈ 0.652 to 1.3 µM) | 4 to 8 µg/mL (≈ 10.4 to 20.9 µM) | 1 to 2 µg/mL (≈ 2.61 to 5.22 µM) | < 0.06 µg/mL | 0.06 to 0.13 µg/mL (≈ 0.156 to 0.339 µM) | – | MIC90 [2]: 4 to 8 µg/mL; MIC90 (Mycobacterium abscessus): > 64 µg/mL; MIC90 (Mycobacterium avium): > 64 µg/mL |
| CC(=O)NC[C@H]1CN(c2ccc(N3CCOCC3)c(F)c2)C(=O)O1 [Linezolid] | > 64 µg/mL | > 64 µg/mL | >64 µg/mL | > 64 µg/mL | > 64 µg/mL | 1 to 2 µg/mL (≈ 2.96 to 5.93 µM) | 0.25 to 0.5 µg/mL (≈ 0.741 to 1.48 µM) | 16 to 32 µg/mL (≈ 47.4 to 94.9 µM) | 1 to 2 µg/mL (≈ 2.96 to 5.93 µM) | 0.2-2.0 ^4,11 µg/ml | bactericidal or bacteriostatic activity (Staphylococcus aureus [18]): bacteriostatic; MIC90 ([17]; listed as linezolid): 0.5 to 2.0 µg/mL |
| C[C@@H](O)[C@H]1C(=O)N2C(C(=O)[O-])=C(SC3Cn4cnc[n+]4C3)[C@H](C)[C@H]12 (stereo partly shown) [Biapenem] | – | – | – | – | – | 0.25 to 0.5 µg/mL (≈ 0.713 to 1.43 µM) | – | – | 0.007 to 0.015 µg/mL (≈ 0.02 to 0.0428 µM) | 2.5-5.0 ^15 µg/ml | – |
